The source of these data is patent US20100292255A1, “Therapeutic Compounds and Their Use in Treating Diseases and Disorders” (Myriad Pharmaceuticals, Inc., priority 2007, published 2010).

One assay concerns T1, purified human Hsp90.
T1 construct: purified human Hsp90 (Stressgen, SPP-770)
The assay is described as follows: Hsp90 binding assay: displacement of BODIPY-labeled geldanamycin measured by fluorescence polarization. The following applies: 5 μM compound; BODIPY-GM 10 nM, Hsp90 30 nM, overnight at room temperature. Put shortly:
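Fluorescence polarization measured displacement of BODIPY-geldanamycin (10 nM) from purified human Hsp90 (30 nM). The buffer was HEPES-KOH pH 7.3 with molybdate, NP-40, gamma globulin and DTT, 2% DMSO, overnight at room temperature, ex/em 485/530 nm. % inhibition was calculated against DMSO controls, and points confounded by compound fluorescence were excluded.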
For orientation: Fluorescence polarisation rises when a labelled molecule tumbles more slowly, as on binding a larger partner.
For the molecule `COCC(=O)N1CCC(CCn2cnc(N)c3nc(Sc4cc5c(cc4C#N)OCO5)nc2-3)CC1` [compound 34, 6-[(6-Amino-3-{2-[1-(methoxyacetyl)piperidin-4-yl]ethyl}-3H-purin-8-yl)thio]-1,3-benzodioxole-5-carbonitrile], the “GM displacement from purified Hsp90 measured by FP Inhibition by 5 μM compd. (%)” value came to 88.0%.
Consider `CO[C@H](C)C(=O)N1CCC(CCn2cnc(N)c3nc(Sc4cc5c(cc4C#N)OCO5)nc2-3)CC1` [compound 36, 6-{[6-Amino-3-(2-{1-[(2R)-2-methoxypropanoyl]piperidin-4-yl}ethyl)-3H-purin-8-yl]thio}-1,3-benzodioxole-5-carbonitrile], for which the “GM displacement from purified Hsp90 measured by FP Inhibition by 5 μM compd. (%)” value worked out at 35.0%.
Regarding `CO[C@@H](C)C(=O)N1CCC(CCn2cnc(N)c3nc(Sc4cc5c(cc4C#N)OCO5)nc2-3)CC1` [compound 38, 6-{[6-Amino-3-(2-{1-[(2S)-2-methoxypropanoyl]piperidin-4-yl}ethyl)-3H-purin-8-yl]thio}-1,3-benzodioxole-5-carbonitrile], the “GM displacement from purified Hsp90 measured by FP Inhibition by 5 μM compd. (%)” value turned out to be 36.0%.
As for `N#Cc1cc2c(cc1Sc1nc3c(N)ncn(CCC4CCN(C(=O)C5CC5(F)F)CC4)c-3n1)OCO2` (centres unmarked) [compound 40, 6-{[6-Amino-3-(2-{1-[(2,2-difluorocyclopropyl)carbonyl]piperidin-4-yl}ethyl)-3H-purin-8-yl]thio}-1,3-benzodioxole-5-carbonitrile], the “GM displacement from purified Hsp90 measured by FP Inhibition by 5 μM compd. (%)” value turned out to be 33.0%.

Still in this assay, the particulars now being: BODIPY-GM 10 nM, Hsp90 30 nM, overnight at room temperature; read-out: GM displacement from purified Hsp90 measured by FP IC 50.
Consider `COCC(=O)N1CCC(CCn2c(Sc3cc4c(cc3C#N)OCO4)nc3c(N)ncnc32)CC1` [compound 33, 6-[(6-Amino-9-{2-[1-(methoxyacetyl)piperidin-4-yl]ethyl}-9H-purin-8-yl)thio]-1,3-benzodioxole-5-carbonitrile], for which the IC50 came out at 300 nM.
`CO[C@H](C)C(=O)N1CCC(CCn2c(Sc3cc4c(cc3C#N)OCO4)nc3c(N)ncnc32)CC1` [compound 35, 6-{[6-Amino-9-(2-{1-[(2R)-2-methoxypropanoyl]piperidin-4-yl}ethyl)-9H-purin-8-yl]thio}-1,3-benzodioxole-5-carbonitrile]: the IC50 stood at 500 nM.
The same measure, in the same setting: next, `CO[C@@H](C)C(=O)N1CCC(CCn2c(Sc3cc4c(cc3C#N)OCO4)nc3c(N)ncnc32)CC1` [compound 37, 6-{[6-Amino-9-(2-{1-[(2S)-2-methoxypropanoyl]piperidin-4-yl}ethyl)-9H-purin-8-yl]thio}-1,3-benzodioxole-5-carbonitrile]: 550 nM.
Turning to `N#Cc1cc2c(cc1Sc1nc3c(N)ncnc3n1CCC1CCN(C(=O)C3CC3(F)F)CC1)OCO2` (centres unmarked) [compound 39, 6-{[6-Amino-9-(2-{1-[(2,2-difluorocyclopropyl)carbonyl]piperidin-4-yl}ethyl)-9H-purin-8-yl]thio}-1,3-benzodioxole-5-carbonitrile], the IC50 was 200 nM.
For `COCCC(=O)N1CCC(CCn2c(Sc3cc4c(cc3C#N)OCO4)nc3c(N)ncnc32)CC1` [compound 41, 6-[(6-Amino-9-{2-[1-(3-methoxypropanoyl)piperidin-4-yl]ethyl}-9H-purin-8-yl)thio]-1,3-benzodioxole-5-carbonitrile], the IC50 turned out to be 480 nM.
As for `COCCOCC(=O)N1CCC(CCn2c(Sc3cc4c(cc3C#N)OCO4)nc3c(N)ncnc32)CC1` [compound 42, 6-{[6-Amino-9-(2-{1-[(2-methoxyethoxy)acetyl]piperidin-4-yl}ethyl)-9H-purin-8-yl]thio}-1,3-benzodioxole-5-carbonitrile], the IC50 was determined as 500 nM.
For `CO[C@@H](C)C(=O)N1CCC(CCn2c(Sc3cc4c(cc3C#N)OCCO4)nc3c(N)ncnc32)CC1` [compound 43, 7-{[6-Amino-9-(2-{1-[(2S)-2-methoxypropanoyl]piperidin-4-yl}ethyl)-9H-purin-8-yl]thio}-2,3-dihydro-1,4-benzodioxine-6-carbonitrile], the IC50 is 320 nM.
